{"source": "patent US6372431B1", "about": "“Mammalian toxicological response markers” (Incyte Genomics, Inc., priority 1999, dated 2002)", "key": {"P450 LA-omega 4A3": {"system": "P450 LA-omega 4A3", "experiment": "microarray gene expression in treated rat liver", "type": "in vivo", "conditions": "clofibrate-treated rat liver, 250 mg/kg bw i.p. single dose", "description": "(§1) For each target preparation, frozen liver was homogenized and lysed in TRIZOL reagent (Life Technologies, Gaithersburg Md.) following the modifications for liver RNA isolation. Messenger RNA was isolated using an OLIGOTEX kit (QIAGEN) and labeled with either Cy3- or Cy5-labeled primers (Operon Technologies, Alameda Calif.) using the GEMBRIGHT labeling kit (Incyte Pharmaceuticals). […] Quantitative and differential expression pattern control cDNAs were added to each labeling reaction. Labeled cDNA was treated with 0.5 M sodium bicarbonate. (pH 9.2) for 20 min at 85 ° C. to degrade the RNA and purified using two successive CHROMA SPIN 30 gel filtration spin columns (Clontech, Palo Alto Calif.). Cy3-labeled control sample and Cy5-labeled experimental sample were combined and precipitated in glycogen, sodium acetate, and ethanol.\n(§2) Hybridizations were carried out using the methods described by Shalon (supra).\n(§3) The microscope used to detect the reporter-labeled hybridization complexes was equipped with an Innova 70 mixed gas 10 W laser (Coherent Lasers, Santa Clara Calif.) capable of generating spectral lines at 488 nm for excitation of Cy3, and 632 nm for excitation of Cy5. The excitation laser light was focused on the array using a 20×microscope objective (Nikon, Melville N.Y.). The slide containing the array was placed on a computer-controlled X-Y stage on the microscope and raster-scanned past the objective. The 1.8 cm×1.8 cm array used in the present example was scanned with a resolution of 20 micrometers.\n(§4) In two separate scans, a mixed gas multiline laser excited the two fluorophores sequentially. Emitted light was split, based on wavelength, into two photomultiplier tube detectors (PMT R1477, Hamamatsu Photonics, San Jose Calif.) corresponding to the two fluorophores. Appropriate filters positioned between the array and the photomultiplier tubes were used to filter the signals. The emission maxima of the fluorophores used were 565 nm for Cy3 and 650 nm for Cy5. Each array was typically scanned twice, one scan per fluorophore using the appropriate filters at the laser source, although the apparatus was capable of recording the spectra from both fluorophores simultaneously.\n(§5) When two probes from different sources (e.g., representing test and control cells), each labeled with a different fluorophore, are hybridized to a single array for the purpose of identifying genes that are differentially expressed, the calibration was done by labeling samples of the calibrating cDNA with the two fluorophores and adding identical amounts of each to the hybridization mixture.\n(§6) A grid was superimposed over the fluorescence signal image such that the signal from each spot was centered in each element of the grid. The fluorescence signal within each element was then integrated to obtain a numerical value corresponding to the average intensity of the signal. The software used for signal analysis was the GEMTOOLS gene expression analysis program (Incyte Pharmaceuticals)."}, "SEQ ID NO:4": {"system": "SEQ ID NO:4", "experiment": "microarray gene expression in treated rat liver", "type": "in vivo", "conditions": "CLO-treated rat liver, 250 mg/kg bw i.p. single dose", "description": "as §1, §2, §3, §4, §5, §6"}, "P450 3A2": {"system": "P450 3A2", "experiment": "microarray gene expression in treated rat liver", "type": "in vivo", "conditions": "clofibrate-treated rat liver, 250 mg/kg bw i.p. single dose", "description": "as §1, §2, §3, §4, §5, §6"}, "P450 4A": {"system": "P450 4A", "experiment": "microarray gene expression in treated rat liver", "type": "in vivo", "conditions": "clofibrate-treated rat liver, 250 mg/kg bw i.p. single dose", "description": "as §1, §2, §3, §4, §5, §6"}, "SEQ ID NO:8": {"system": "SEQ ID NO:8", "conditions": "male, Sprague-Dawley, rat, in vivo, ip, 250 mg/kg", "description": "as §1, §2, §3, §4, §5, §6"}, "SEQ ID NO:5": {"system": "SEQ ID NO:5", "conditions": "male, Sprague-Dawley, rat, in vivo, ip, 250 mg/kg", "description": "as §1, §2, §3, §4, §5, §6"}, "SEQ ID NO:3": {"system": "SEQ ID NO:3", "conditions": "male, Sprague-Dawley, rat, in vivo, ip, 250 mg/kg", "description": "as §1, §2, §3, §4, §5, §6"}, "SEQ ID NO:2": {"system": "SEQ ID NO:2", "conditions": "male, Sprague-Dawley, rat, in vivo, ip, 250 mg/kg", "description": "as §1, §2, §3, §4, §5, §6"}}, "note": "Read-outs that look alike come from different tables or passages of the source.", "data": [{"compound": "CCOC(=O)C(C)(C)Oc1ccc(Cl)cc1", "note": "[clofibrate]", "values": [{"measurement": "Gene expression (x-fold change) of P450 LA-omega 4A3", "setting": "P450 LA-omega 4A3; 12 hours", "value": 14.8, "unit": "x-fold change"}, {"measurement": "Gene expression (x-fold change) of P450 LA-omega 4A3", "setting": "P450 LA-omega 4A3; 24 hours", "value": 26.6, "unit": "x-fold change"}, {"measurement": "Gene expression (x-fold change) of P450 LA-omega 4A3", "setting": "P450 LA-omega 4A3; 3 days", "value": 1.1, "unit": "x-fold change"}, {"measurement": "Gene expression (x-fold change) of P450 LA-omega 4A3", "setting": "P450 LA-omega 4A3; 7 days", "value": 0.5, "unit": "x-fold change"}, {"measurement": "Gene expression (x-fold change) of P450 LA-omega 4A3", "setting": "P450 LA-omega 4A3; 28 days", "value": 0.47, "unit": "x-fold change"}, {"measurement": "Gene expression (x-fold change) of SEQ ID NO: 4", "setting": "SEQ ID NO:4; 12 hours", "value": 2, "unit": "x-fold change"}, {"measurement": "Gene expression (x-fold change) of SEQ ID NO: 4", "setting": "SEQ ID NO:4; 24 hours", "value": 0.36, "unit": "x-fold change"}, {"measurement": "Gene expression (x-fold change) of SEQ ID NO: 4", "setting": "SEQ ID NO:4; 3 days", "value": 0.47, "unit": "x-fold change"}, {"measurement": "Gene expression (x-fold change) of SEQ ID NO: 4", "setting": "SEQ ID NO:4; 7 days", "value": 0.26, "unit": "x-fold change"}, {"measurement": "Gene expression (x-fold change) of SEQ ID NO: 4", "setting": "SEQ ID NO:4; 28 days", "value": 0.30, "unit": "x-fold change"}, {"measurement": "Gene expression (x-fold change) of P450 3A2", "setting": "P450 3A2; 12 hours", "value": 0.14, "unit": "x-fold change"}, {"measurement": "Gene expression (x-fold change) of P450 3A2", "setting": "P450 3A2; 24 hours", "value": 1.2, "unit": "x-fold change"}, {"measurement": "Gene expression (x-fold change) of P450 3A2", "setting": "P450 3A2; 3 days", "value": 0.63, "unit": "x-fold change"}, {"measurement": "Gene expression (x-fold change) of P450 3A2", "setting": "P450 3A2; 7 days", "value": 0.50, "unit": "x-fold change"}, {"measurement": "Gene expression (x-fold change) of P450 3A2", "setting": "P450 3A2; 28 days", "value": 0.45, "unit": "x-fold change"}, {"measurement": "Gene expression (x-fold change) of P450 4A", "setting": "P450 4A; 12 hours", "value": 7.0, "unit": "x-fold change"}, {"measurement": "Gene expression (x-fold change) of P450 4A", "setting": "P450 4A; 24 hours", "value": 16.6, "unit": "x-fold change"}, {"measurement": "Gene expression (x-fold change) of P450 4A", "setting": "P450 4A; 3 days", "value": 1.4, "unit": "x-fold change"}, {"measurement": "Gene expression (x-fold change) of P450 4A", "setting": "P450 4A; 7 days", "value": 0.5, "unit": "x-fold change"}, {"measurement": "Gene expression (x-fold change) of P450 4A", "setting": "P450 4A; 28 days", "value": 1.3, "unit": "x-fold change"}, {"measurement": "Gene expression (x-fold change) of SEQ ID NO: 8", "setting": "SEQ ID NO:8; 12 h", "value": 2.6, "unit": "x-fold change"}, {"measurement": "Gene expression (x-fold change) of SEQ ID NO: 8", "setting": "SEQ ID NO:8; 24 h", "value": 1.7, "unit": "x-fold change"}, {"measurement": "Gene expression (x-fold change) of SEQ ID NO: 8", "setting": "SEQ ID NO:8; 3 days", "value": 1.3, "unit": "x-fold change"}, {"measurement": "Gene expression (x-fold change) of SEQ ID NO: 8", "setting": "SEQ ID NO:8; 7 days", "value": 1.3, "unit": "x-fold change"}, {"measurement": "Gene expression (x-fold change) of SEQ ID NO: 8", "setting": "SEQ ID NO:8; 28 days", "value": 1.4, "unit": "x-fold change"}, {"measurement": "Gene expression (x-fold change) of SEQ ID NO: 5", "setting": "SEQ ID NO:5; 12 h", "value": 1.7, "unit": "x-fold change"}, {"measurement": "Gene expression (x-fold change) of SEQ ID NO: 5", "setting": "SEQ ID NO:5; 24 h", "value": 2.9, "unit": "x-fold change"}, {"measurement": "Gene expression (x-fold change) of SEQ ID NO: 5", "setting": "SEQ ID NO:5; 3 days", "value": 1.6, "unit": "x-fold change"}, {"measurement": "Gene expression (x-fold change) of SEQ ID NO: 5", "setting": "SEQ ID NO:5; 7 days", "value": 1.5, "unit": "x-fold change"}, {"measurement": "Gene expression (x-fold change) of SEQ ID NO: 5", "setting": "SEQ ID NO:5; 28 days", "value": 1.2, "unit": "x-fold change"}, {"measurement": "Gene expression (x-fold change) of SEQ ID NO: 3", "setting": "SEQ ID NO:3; 12 h", "value": 1.3, "unit": "x-fold change"}, {"measurement": "Gene expression (x-fold change) of SEQ ID NO: 3", "setting": "SEQ ID NO:3; 24 h", "value": 2, "unit": "x-fold change"}, {"measurement": "Gene expression (x-fold change) of SEQ ID NO: 3", "setting": "SEQ ID NO:3; 3 days", "value": 1.3, "unit": "x-fold change"}, {"measurement": "Gene expression (x-fold change) of SEQ ID NO: 3", "setting": "SEQ ID NO:3; 7 days", "value": 1.5, "unit": "x-fold change"}, {"measurement": "Gene expression (x-fold change) of SEQ ID NO: 3", "setting": "SEQ ID NO:3; 28 days", "value": 1.5, "unit": "x-fold change"}, {"measurement": "Gene expression (x-fold change) of SEQ ID NO: 2", "setting": "SEQ ID NO:2; 12 h", "value": 2.6, "unit": "x-fold change"}, {"measurement": "Gene expression (x-fold change) of SEQ ID NO: 2", "setting": "SEQ ID NO:2; 24 h", "value": 1.4, "unit": "x-fold change"}, {"measurement": "Gene expression (x-fold change) of SEQ ID NO: 2", "setting": "SEQ ID NO:2; 3 days", "value": 0.5, "unit": "x-fold change"}, {"measurement": "Gene expression (x-fold change) of SEQ ID NO: 2", "setting": "SEQ ID NO:2; 7 days", "value": 1.1, "unit": "x-fold change"}, {"measurement": "Gene expression (x-fold change) of SEQ ID NO: 2", "setting": "SEQ ID NO:2; 28 days", "value": 1.2, "unit": "x-fold change"}]}]}
